Converted amounts (≈) assume the structure as drawn. Like-named read-outs stand apart in the source and are kept apart here.
Experiments:
G. lamblia 713-M3 (713M) = system: G. lamblia 713-M3 (713M); set-up: method as in earlier work; settings: MtzR, crude Mtz-triazoles (>85% purity), ref 15 (Miyamoto et al.); read-out: EC50 G. lamblia 713M, Lit.; cited from earlier work
[1] = system: G. lamblia BRIS/83/HEPU/106 (106); set-up: method as in earlier work; settings: MtzS, crude Mtz-triazoles (>85% purity), ref 15 (Miyamoto et al.); read-out: EC50 G. lamblia 106, Lit.; cited from earlier work
[2] = system: G. lamblia BRIS/87/HEPU/713 (713); set-up: method as in earlier work; settings: MtzS, crude Mtz-triazoles (>85% purity), ref 15 (Miyamoto et al.); read-out: EC50 G. lamblia 713, Lit.; cited from earlier work
[3] = system: G. lamblia BRIS/83/HEPU/106 (106); test: ATP-bioluminescence growth and survival assay, G. lamblia 106; assay type: cell-based; settings: Giardia duodenalis, read-out: EC50 G. lamblia 106
Description: Compounds were tested for antiparasitic activity against E. histolytica (HM1:1MSS strain) and G. lamblia (WB, BRIS/87/HEPU/713 (713), BRIS/83/HEPU/106 (106) and the metronidazole resistant syngeneic line 713-M3 [[15,16]]) using an ATP-bioluminescence based screen for cell growth and survival [[17,18]]. Assay plates were inoculated with trophozoites (5 × 10^3 parasites/well) and incubated in the GasPak™ EZ Anaerobe Gas Generating Pouch Systems (VWR, West Chester, PA) to maintain anaerobic conditions throughout the incubation period. The assays were performed in triplicate using the CellTiter-Glo Luminescent Cell Viability Assay. Metronidazole was used as a positive control.
Trophozoites of E. histolytica strain HM1:IMSS and G. lamblia strains WB, BRIS/87/HEPU/713 (713),^10 BRIS/83/HEPU/106 (106)^11 and the metronidazole resistant syngenic line 713-M3^10,11 were axenically maintained in TYI-S-33 medium supplemented with penicillin (100 U/ml), streptomycin (100 µg/ml).^12 E. histolytica and G. lamblia trophozoites were counted using a particle counter (Beckman Coulter, Fullerton, CA). All experiments were performed using trophozoites harvested during the logarithmic phase of growth.
A three-fold serial dilution was then performed yielding a concentration range 0.25-625 µM. From this dilution plate, 4 µL were transferred into the 96-well screen plates followed by addition of 96 µL of trophozoites (5,000 parasites) to yield a final 8-point concentration range spanning 0.01- 25 µM. Assay plates were incubated for 48 h at 37 °C in the GasPak^TM EZ Anaerobe Gas Generating Pouch Systems (VWR, West Chester, PA) to maintain anaerobic condition throughout the incubation period. The assays were performed in triplicate using the CellTiter-Glo Luminescent Cell Viability Assay.^13

[4] = system: H. pylori clinical isolate 13/61; test: MIC agar dilution, H. pylori 13/61; assay type: cell-based; settings: Helicobacter pylori, MtzR clinical isolate
Description: (§1) All compounds were tested for activity against a set of anaerobic C. difficile bacteria (630 ATCC BAA-1382, NAP1/027 M7404, NAP1/027 ATCC BAA-1803, VPI10463 ATCC 43255, CD26A54_S and CD26A54_R) and representative ESKAPE pathogens S. aureus (MRSA ATCC 43300), E. coli (ATCC 25922), K. pneumoniae (ATCC 700603), A. baumannii (ATCC 19606) and P. aeruginosa (ATCC 27853) using a standard broth microdilution assay. Selected compounds were tested for activity against H. pylori strains (26695, and clinical isolates MtzS 13/25, MtzR 98/285 and MtzR 13/61) using agar plate dilution, and for antimicrobial activity against […] Gram-positive bacterial strains: Enterococcus faecalis (VanA clinical isolate), Enterococcus faecium (MDR VanA ATCC 51559), Streptococcus pneumoniae (MDR ATCC 700677), S. aureus (MRSA ATCC 43300, MRSA clinical isolate, MRSA/DRSA clinical isolate, GISA NARSA NRS 1, GISA NARSA NRS 17, VRSA NARSA VRS1, VRSA NARSA VRS4 and VRSA NARSA VRS10) using broth microdilution. C. difficile strains were grown at 37 °C in a COY anaerobic chamber (5% H2, 10% CO2, 85% N2). H. pylori strains were grown at 37 °C under a microaerobic atmosphere (5% O2, 10% CO2). All facultative anaerobic bacteria were grown at 37 °C with normal atmospheric oxygen levels. All experiments were performed in duplicate with metronidazole, vancomycin, linezolid or colistin as positive controls for relevant strains (see Table 1). Positive growth control of bacteria and DMSO as well as a negative control of only media were included for every plate. Full assay details are provided in the supplementary information.
(§2) Helicobacter pylori strains, with a range of resistance levels to metronidazole (256 µg/ml, 64 µg/ml, 24 µg/ml, 2 µg/ml, and 0.04 µg/ml), were selected and obtained from Helicobacter Research Laboratory, University of Western Australia. The resistance strength to metronidazole was recorded according to eTest (bioMérieux). H. pylori strain 26695 was used as the control. H. pylori was maintained on the non-selective Columbia blood agar plates (CBA) (Columbia agar base Oxoid) with 5% horse blood and incubated at 37 °C and 10% CO2 for 48 hrs. […] Each of the H. pylori strains were harvested, OD600 calibrated to 0.3, and spotted in triplicate on CBA pre-mixed with the compound. The lowest concentration of antibiotic showing no growth was read as the MIC. The experiment was performed in duplicate.

[5] = system: H. pylori clinical isolate 98/285; test: MIC agar dilution, H. pylori 98/285; assay type: cell-based; settings: Helicobacter pylori, MtzR clinical isolate
Description: as §1, §2

H. pylori 26695 = test: MIC agar dilution, H. pylori 26695; assay type: cell-based; settings: Helicobacter pylori, MtzS, microaerobic
Description: as §1, §2

[6] = system: H. pylori clinical isolate 13/25; test: MIC agar dilution, H. pylori 13/25; assay type: cell-based; settings: Helicobacter pylori, MtzS clinical isolate
Description: as §1, §2

[7] = MIC broth microdilution, drug resistant Gram-positive panel; assay type: cell-based; settings: all strains of the panel; read-out: MIC against panel of drug resistant Gram-positive strains
Description: as §1
MICs were determined by a two-fold serial broth micro dilution according to the recommendation of CLSI standards with an inoculum of 5 × 10^5 CFU/mL^4 The compounds along with standard antibiotics were serially diluted twofold across the wells of 96-well non-binding surface plates (NBS, Corning). Standards ranged from 64 to 0.03 μg/mL, and the compounds from 128 to 0.06 μg/mL with final volumes of 50 μL per well. Gram-positive and Gram-negative bacteria were cultured in Mueller Hinton broth (MHB) (Bacto laboratories, Cat. no. 211443) at 37 °C overnight. A sample of each culture was then diluted 40-fold in fresh MHB broth and incubated at 37 °C for 2-3 h. The resultant mid-log phase cultures were diluted to the final concentration of 5 × 10^5 CFU/mL, then 50 μL was added to each well of the compound containing 96-well plates. All the plates were covered and incubated at 37 °C for 24 h.

Cc1ccc(-c2cn(CCn3c([N+](=O)[O-])cnc3C)nn2)cc1 [Compound 4e, 1-(2-(2-methyl-5-nitro-1H-imidazol-1-yl)ethyl)-4-(p-tolyl)-1H-1,2,3-triazole]
EC50 (G. lamblia 713-M3 (713M)): 8100 nM | EC50 [1]: 2100 nM | EC50 [2]: 530 nM | EC50 [3]: 290 nM

Cc1ncc([N+](=O)[O-])n1CCn1cc(Cn2cccn2)nn1 [Compound 4g, 1-(2-(2-methyl-5-nitro-1H-imidazol-1-yl)ethyl)-4-((1H-pyrazol-1-yl)methyl)-1H-1,2,3-triazole]
MIC [4]: 16 to 32 µg/mL (≈ 52.9 to 106 µM) | MIC [5]: 16 to 32 µg/mL (≈ 52.9 to 106 µM) | MIC (H. pylori 26695): 2 to 4 µg/mL (≈ 6.62 to 13.2 µM) | MIC [6]: 2 µg/mL (≈ 6.62 µM)

Cc1ncc([N+](=O)[O-])n1CCn1cc(-c2ccccn2)nn1 [Compound 4h, 1-(2-(2-methyl-5-nitro-1H-imidazol-1-yl)ethyl)-4-(2-pyridinyl)-1H-1,2,3-triazole.xTFA]
MIC [4]: 16 µg/mL | MIC [5]: 32 µg/mL | EC50 (G. lamblia 713-M3 (713M)): 14000 nM | EC50 [1]: 560 nM | MIC (H. pylori 26695): 2 µg/mL | EC50 [2]: 350 nM | MIC [6]: 1 µg/mL | EC50 [3]: 380 nM

Cc1ncc([N+](=O)[O-])n1CCn1cc(C(O)c2ccccc2)nn1 (stereo not drawn) [Compound 4l, 1-(2-(2-methyl-5-nitro-1H-imidazol-1-yl)ethyl)-4-(1-phenyl-1-hydroxylmethyl)-1H-1,2,3-triazole]
EC50 [3]: 2200 nM

COc1ccc(-c2cn(CCn3c([N+](=O)[O-])cnc3C)nn2)cc1 [Compound 4b, 1-(2-(2-methyl-5-nitro-1H-imidazol-1-yl)ethyl)-4-(4-methoxyphenyl)-1H-1,2,3-triazole]
EC50 [3]: 640 nM

COC(=O)c1cn(CCn2c([N+](=O)[O-])cnc2C)nn1 [Compound 4f, 1-(2-(2-methyl-5-nitro-1H-imidazol-1-yl)ethyl)-4-(methoxycarbonyl)-1H-1,2,3-triazole]
MIC (H. pylori 26695): 32 to 64 µg/mL (≈ 114 to 228 µM) | MIC [6]: 32 to 64 µg/mL (≈ 114 to 228 µM) | EC50 [3]: 2000 nM

Cc1ncc([N+](=O)[O-])n1CCn1cc(-c2ccccc2)nn1 [Compound 4a, 1-(2-(2-methyl-5-nitro-1H-imidazol-1-yl)ethyl)-4-phenyl-1H-1,2,3-triazole]
MIC [7]: > 64 µg/mL | EC50 (G. lamblia 713-M3 (713M)): 5300 nM | EC50 [1]: 260 nM | EC50 [2]: 160 nM | EC50 [3]: 280 nM

Cc1ncc([N+](=O)[O-])n1CCn1cc(-c2ccc(Cl)cc2)nn1 [Compound 4c, 1-(2-(2-methyl-5-nitro-1H-imidazol-1-yl)ethyl)-4-(4-chlorophenyl)-1H-1,2,3-triazole]
EC50 [3]: 890 nM

Cc1ncc([N+](=O)[O-])n1CCn1cc(CO)nn1 [Compound 4q, 1-(2-(2-methyl-5-nitro-1H-imidazol-1-yl)ethyl)-4-(hydroxymethyl)-1H-1,2,3-triazole]
MIC [7]: > 64 µg/mL

Cc1ncc([N+](=O)[O-])n1CCn1cc(CN(C)Cc2ccccc2)nn1 [Compound 4m, 1-(2-(2-methyl-5-nitro-1H-imidazol-1-yl)ethyl)-4-(N-benzyl, N-methylaminomethyl)-1H-1,2,3-triazole]
MIC [4]: 16 µg/mL (≈ 45 µM) | EC50 (G. lamblia 713-M3 (713M)): 9300 nM | EC50 [1]: 300 nM | MIC (H. pylori 26695): 4 µg/mL (≈ 11.3 µM) | EC50 [2]: 910 nM | MIC [6]: 2 µg/mL (≈ 5.63 µM) | EC50 [3]: 1100 nM

Cc1ncc([N+](=O)[O-])n1CCn1cc(Cc2ccccc2)nn1 [Compound 4k, 1-(2-(2-methyl-5-nitro-1H-imidazol-1-yl)ethyl)-4-benzyl-1H-1,2,3-triazole]
EC50 (G. lamblia 713-M3 (713M)): 5200 nM | EC50 [1]: 710 nM | EC50 [2]: 390 nM | EC50 [3]: 510 nM

Cc1ncc([N+](=O)[O-])n1CCn1cc(-c2ccc(Cl)c(Cl)c2)nn1 [Compound 4d, 1-(2-(2-methyl-5-nitro-1H-imidazol-1-yl)ethyl)-4-(3,4-dichlorophenyl)-1H-1,2,3-triazole]
EC50 (G. lamblia 713-M3 (713M)): 570 nM | EC50 [1]: 1400 nM | EC50 [2]: 310 nM | EC50 [3]: 1100 nM

Cc1ncc([N+](=O)[O-])n1CCO [Compound 1, metronidazole]
MIC [7]: > 64 µg/mL | MIC [4]: 32 to 64 µg/mL (≈ 187 to 374 µM) | MIC [5]: 64 µg/mL (≈ 374 µM) | EC50 (G. lamblia 713-M3 (713M)): 50000 nM | EC50 [1]: 3600 nM | MIC (H. pylori 26695): 8 µg/mL (≈ 46.7 µM) | EC50 [2]: 2000 nM | MIC [6]: 4 to 8 µg/mL (≈ 23.4 to 46.7 µM) | EC50 ([3]; MtzS, purified compounds, this study): 2800 nM

Cc1ncc([N+](=O)[O-])n1CCn1cc(-c2ccsc2)nn1 [Compound 4n, 1-(2-(2-methyl-5-nitro-1H-imidazol-1-yl)ethyl)-4-(thiophen-3-yl)-1H-1,2,3-triazole]
EC50 (G. lamblia 713-M3 (713M)): 6900 nM | EC50 [1]: 340 nM | EC50 [2]: 230 nM | EC50 [3]: 340 nM

Cc1ncc([N+](=O)[O-])n1CCn1cc(C(=O)O)nn1 [Compound 4s, 1-(2-(2-methyl-5-nitro-1H-imidazol-1-yl)ethyl)-4-(carboxy)-1H-1,2,3-triazole]
MIC [4]: > 64 µg/mL | MIC [5]: > 64 µg/mL | MIC (H. pylori 26695): > 64 µg/mL | MIC [6]: > 64 µg/mL
